Like-named read-outs stand apart in the source and are kept apart here.
How the values were obtained:
U87MG cells [1] = experiment: Cell viability, Trypan blue exclusion assay; assay type: cell-based, human
Experimental: Each experiment was performed in duplicate. […] Each experiment was performed in duplicate.
The effects of compound treatment on U87MG cell viability were evaluated by Trypan blue exclusion assays. Briefly harvested cells were mixed with an equal volume of 0.4% trypan blue dye. For quantization of cell viability, blue and bright cells were counted, and viability was calculated as the percentage of live (bright) cells versus control set to 100%. U87MG cells were treated with different concentrations (10 nM–10 μM) of each compound and after 24 h of incubation viable cells were counted.

U87MG cells [2] = experiment: Δψm dissipation in intact cells (JC-1, mitochondria isolated after cell treatment); conditions: for Δψm dissipation: 10 μM, 24 h of cell treatment; for Δψm dissipation vs control: intact cells, 5 μM, 24 h
[3] = molecular target: T1, native human MDM2/p53 complex (Homo sapiens, UniProt Q00987); experiment: ELISA-based dissociation of native MDM2/p53 complex in U87MG cell lysates; assay type: biochemical
T1 construct: U87MG cell lysates, containing the native MDM2/p53 complex; endogenous in cells; host or cells: U87MG human glioblastoma cells
Experimental: After extensive washes, levels of the MDM2/p53 complex were quantified using an antibody specific for p53, and subsequently an HRP-conjugated antibody and a TMB substrate kit. (C), (D) U87MG cell lysates, containing the native MDM2/p53 complex, were pre-incubated with DMSO (control) or different concentrations of the indicated compounds. Then, lysates were captured on wells pre-coated with MDM2 antibody. After extensive washes, levels of the MDM2/p53 complex were quantified using an antibody specific for p53, and subsequently an HRP-conjugated antibody and a TMB substrate kit. Blank wells were obtained in the absence of p53 antibody. Data are expressed as absorbance at 450 nm minus blank values (A), (B), or as % of control set to 100% (C), (D), and represent the mean ± SEM of at least three independent experiments.
To test the ability of new compound to dissociate the native MDM2/p53 complex, a quantitative sandwich immune-enzymatic assay, on crude cell lysates obtained from U87 MG cells was developed. […] The TMB substrate kit (Thermo Fisher Scientific) allowed a colorimetric quantification of the MDM2/p53 complex. […] Absorbance's values at 450 nm were measured, background subtracted and sigmoid dose-response curves were generated using Graph Pad Prism 4 software, from which IC50 values of MDM2/p53 complex were derived.

U87MG cells [4] = experiment: Annexin V and 7-AAD staining (apoptosis); assay type: cell-based, human
Experimental: Dual staining with Annexin V coniugated to fluorescein-isothiocyanate (FITC) and 7-amino-actinomysin (7-AAD) was performed using the commercially available kit (Muse Annexin V and Dead Cell Kit; Merck KGaA, Darmstadt, Germany). […] Both floating and adherent cells were collected, centrifuged at 300 × g for 5 minutes and suspended in cell culture medium. Then, a 100 μl aliquot of cell suspension (about 5 × 10^4 cell/ml) was added to 100 μl of fluorescent reagent and incubated for 10 minutes at room temperature. After incubation, the percentages of living, apoptotic and dead cells were acquired and analyzed by Muse™ Cell Analyzer in accordance to the manufacture's guidelines. In cells undergoing apoptosis, annexin V binds to phosphatidylserine, which translocates to the outer leaflet of the cytoplasmatic membrane. Double staining is used to distinguish between viable, early apoptotic, and necrotic or late apoptotic cells. Annexin V:FITC […] cells were identified as early apoptotic. Cells which were Annexin V-FITC positive and 7-AAD positive were identified as cells in late apoptosis or necrotic.

[5] = Precipitation in NMR sample; assay type: physicochemical; conditions: added from DMSO stock, 20 mM TrisHCl, 150 mM KCl, pH 7.4
Experimental: NMR spectra were acquired at 25°C on a Varian Unity INOVA 700 MHz spectrometer equipped with a cryoprobe. NMR samples contained 0.1 mM of proteins in 20 mM TrisHCl, 150 mM KCl, pH 7.4, 5 mM β-mercaptoethanol, 0.02% NaN3. Water suppression was carried out by gradient echo[39]. NMR data were processed using the Bruker program BioSpin 3.0. For NMR ligand binding experiments, 300 μL of the protein sample containing 10% D2O, at a concentration of about 0.1 mM, and a 10 mM stock solution of compounds 7 and 1 in DMSO-d6 were used. The formal final molar ratio protein:inhibitor was 1:2.

[6] = system: p53 target genes (MDM2, p21, PUMA) in U87MG cells; experiment: Relative mRNA quantification of p53 target genes (real-time RT-PCR); assay type: cell-based, human; conditions: for mRNA levels of p53 target genes (MDM2 and p21): 5 μM
Experimental: The assessment of p53 target gene mRNA levels was performed by real-time reverse transcription polymerase chain reaction (real-time RT-PCR)[16]. In brief, total RNA was extracted from control cells as well as from cells treated with compounds (5 μM) for different hours, using Rneasy® Mini Kit (Qiagen, Hilden, Germany) according to manufacturer's instructions. Purity of the RNA samples was determined by measuring the absorbance at 260:280 nm. cDNA synthesis was performed with 500 ng of RNA using i-Script cDNA synthesis kit (BioRad, Hercules, USA) following manufacturer's instructions. […] RT-PCR reactions consisted of 25 μL Fluocycle® II SYBR® (Euroclone, Milano, Italy), 1.5 μL of both 10 μM forward and reverse primers, 3 μL cDNA, and 19 μL of H2O. All reactions were performed for 40 cycles using 55°C as annealing temperature. The p53 target gene mRNA levels for each sample were normalized against β-actin mRNA levels, and relative expression was calculated by using Ct value. PCR specificity was verified by both the melting curve analysis and gel electrophoresis.

[7] = system: p53 protein levels in U87MG cells; experiment: p53 protein levels by Western blot; assay type: cell-based, human; conditions: 8 h incubation
Experimental: Figure 6 New synthesized compounds induce p53 protein accumulation by dissociation of MDM2/p53 complex and stimulate transcription of p53 target genes in U87MG cells. […] Lysates were subjected to Western blot analysis using antibody to p53 (FL-393; Santa Cruz Biotechnology). […] The MDM2/p53 complex and the relative input of the proteins were detected by immunoblot. One representative Western blot is presented (left panel). […] (D) Relative mRNA quantification of p53 target genes: The relative mRNA quantification of p53 target genes (p21 and MDM2) was performed by real-time RT-PCR as describe in Methods. […] Each experiment was performed in duplicate.
The western blot analysis for the evaluation of p53 protein levels was performed as previously described. […] 30 μg of each sample was then resolved by SDS-PAGE (8.5%), transferred to PVDF membranes and probed overnight at 4°C with primary antibody anti-p53 (FL-393; Santa Cruz Biotechnology; 1:500). The primary antibody was detected using anti-rabbit IgG light chains conjugated to peroxidase (diluted 1:10.000). The peroxidase was detected using a chemioluminescent substrate (ECL, Perkin Elmer). Densitometric analysis of immunoreactive bands was performed using Image J Software.

[8] = system: mitochondria isolated from the human GBM cell line U87MG; experiment: Δψm dissipation in isolated mitochondria (JC-1); assay type: biochemical; conditions: isolated treated mitochondria, 5 μM, 15 min
Experimental: (§1) Figure 3 New synthesized compounds bind to TSPO and induce Δψm collapse. (A) [^3H]PK11195 radioligand binding: membranes homogenates obtained from kidney (20 μg of proteins) were incubated with 0.6 nM [^3H]PK11195 and different compounds concentration. Reaching equilibrium, samples were filtered and bound radioactivity was counted. […] (B) Evaluation of Δψm in isolated mitochondria: Mitochondria (5 μg of proteins) were treated with compound 1 (5 μM), or compound 7 (5 μM), or DMSO (control) for 15 min. […] Each experiment was performed in duplicate.
Several evidences have shown that TSPO is a constituent of the MPTP, taking therefore part in dissipation of Δψm that occurs after MPTP opening, as well as in the release of proapoptotic inter-membrane proteins and in the induction of apoptosis. To assess whether compounds 1 and 7 could modulate MPT-pore opening through their selective binding to TSPO, Δψm was measured in mitochondria isolated from the human GBM cell line U87MG.

TSPO = molecular target: T2, TSPO (Rattus norvegicus, UniProt P16257); experiment: Competitive [3H]PK11195 radioligand binding assay; conditions: membrane homogenates from kidney, 0.6 nM [3H]PK11195; read-out: Ki, displacement of specific [3H]PK11195 binding
T2 construct: membranes homogenates obtained from kidney (20 μg of proteins) were incubated with 0.6 nM; from tissue; host or cells: kidney (crude mitochondrial membranes)
Experimental: as §1
Binding studies were performed as previously described. Briefly, crude mitochondrial membranes, in 50 mM Tris-HCl pH 7.4 buffer, were incubated with 0.6 nM [^3H]PK 11195 in the presence of new synthesized compounds (0.1 nM–10 μM) in a final volume of 0.5 ml for 90 min at 4°C. Incubations were terminated by rapid filtration through GF/C glass fiber filters and washed three times with 4 ml of cold buffer. The radioactivity was measured by liquid scintillation counter. Non-specific binding was estimated in the presence of unlabeled 1 μM PK 11195. IC50 value was determined using Graph-Pad Prism computer program (Graph Pad Software, version 5.0; San Diego, CA).

U87MG cells [9] = experiment: Senescence marker SA-β-Gal; assay type: cell-based, human; conditions: 5 μM, 24 h
Source text: The senescence marker SA-β-Gal was detected as previously described[16] and cells were then washed in PBS (1×) and photographed at 100× magnification. Images of random light microscopic fields were captured (5 fields per well), and both blue and total cells were counted using ImageJ (ImageJ Software, version 1.41; USA).

[10] = molecular target: T3, recombinant human MDM2/p53 complex (Homo sapiens, UniProt Q00987); experiment: NMR dissociation (AIDA) of recombinant MDM2/p53 complex; assay type: binding; conditions: 0.2 mM formal final concentration, complex 0.1 mM
T3 construct: N-terminal region of MDM2 (residues 1–118); His-tag; made in house; host or cells: Escherichia coli BL21(DE3) RIL
T3 sequence (Q00987 1-118, one chain of several): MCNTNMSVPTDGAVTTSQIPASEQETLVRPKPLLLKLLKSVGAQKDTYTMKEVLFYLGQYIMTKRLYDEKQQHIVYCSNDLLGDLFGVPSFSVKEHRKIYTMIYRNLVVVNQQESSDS
Source text: The method, named AIDA (for Antagonist Induced Dissociation Assay[26][27]), can work with complex made by a large protein fragment (larger than 30 kDa) and a small reporter protein (less than 20 kDa). AIDA makes use of two-dimensional^15N-HSQC spectra, however, in the presence of flexible protein residues, 1D proton NMR spectra may be sufficient for monitoring the states of the complex upon addition of ligands. Since the N-terminal domain of p53 is highly flexible, MDM2/p53 complex is suitable for 1D proton NMR application[26][28][29]. Particularly, the signals from ^NH^ε side chains of W23 and W53 are sharp in the free p53 1D proton spectrum. After the complex formation, W23 signal disappears, since W23 comprises the primary binding site for MDM2. In fact, residues 17–26 of p53 participate in well-defined structures of large MDM2/p53 complexes. In contrast, W53 is still not structured when p53 binds MDM2[26].
NMR spectra were acquired at 25°C on a Varian Unity INOVA 700 MHz spectrometer equipped with a cryoprobe. […] Water suppression was carried out by gradient echo[39]. NMR data were processed using the Bruker program BioSpin 3.0.

T1 sequence (Q00987 whole entry, one chain of several): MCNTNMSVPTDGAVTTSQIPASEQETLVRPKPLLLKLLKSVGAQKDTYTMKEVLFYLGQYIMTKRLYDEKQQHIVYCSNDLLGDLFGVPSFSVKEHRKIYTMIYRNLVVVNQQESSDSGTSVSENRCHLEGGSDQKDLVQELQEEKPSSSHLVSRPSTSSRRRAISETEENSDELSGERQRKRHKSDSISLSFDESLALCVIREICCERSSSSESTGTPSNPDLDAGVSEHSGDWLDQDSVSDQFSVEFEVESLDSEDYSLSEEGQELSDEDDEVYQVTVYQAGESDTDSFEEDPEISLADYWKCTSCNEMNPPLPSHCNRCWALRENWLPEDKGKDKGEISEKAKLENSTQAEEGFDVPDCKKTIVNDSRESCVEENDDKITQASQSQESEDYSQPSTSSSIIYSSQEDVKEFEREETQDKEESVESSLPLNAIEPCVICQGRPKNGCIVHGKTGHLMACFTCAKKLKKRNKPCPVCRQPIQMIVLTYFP

SMILES | Δψm dissipation (U87MG cells [2]) | IC50 [3] | mRNA levels of p53 target genes (MDM2 and p21) [6] | concentration at which p53 accumulation became significant [7] | Δψm dissipation vs control (U87MG cells [2]) | Δψm dissipation vs control [8] | Ki (TSPO) | other results
CCC(C)N(C)C(=O)c1cc2ccccc2c(-c2ccccc2Cl)n1 (stereo not shown) [PK11195] | significant Δψm dissipation |  |  |  |  |  |  | inhibition of cell viability vs control (U87MG cells [1]; 100 μM, 24 h, maximal effect): 52.0 ± 2.3%; concentration from which inhibition of cell viability is significant (U87MG cells [1]; 24 h): 10 µM
O=C1[C@@H]2CS[C@@]3(C(=O)Nc4ccccc43)N2C(=O)N1Cc1ccc(Cl)cc1 [ISA27, reference compound] |  | 122 ± 14.5 nM |  |  |  |  |  | 
COc1ccc(C2=N[C@@H](c3ccc(Cl)cc3)[C@@H](c3ccc(Cl)cc3)N2C(=O)N2CCNC(=O)C2)c(OC(C)C)c1 [Nutlin-3, reference compound] | only a marginal effect |  |  |  |  |  |  | effect on U87MG cell viability (U87MG cells [1]; 24 h): dose-dependent reduction; induction of specific apoptotic parameters (Annexin V, PUMA mRNA) (U87MG cells [4]; 10 μM, 24 h): did not show any induction
CCOC(=O)[C@@H](Cc1ccccc1)NC(=O)[C@H](CC(C)C)NC(=O)C(=O)c1c(-c2ccccc2)[nH]c2ccccc12 [compound 1, (2-phenylindol-3-yl)glyoxyl-L-leucine-L-phenylalanine ethylester] |  |  | increase significantly | 5 µM | 47.0 ± 3.4% | 20.0 ± 1.8% | 438 ± 35 nM | IC50 (U87MG cells [1]; Homo sapiens, U-87 MG, 24 h, read-out: IC50, U87MG cell survival): 2500 ± 400 nM; phosphatidylserine externalization (early and late apoptosis) (U87MG cells [4]; 5 μM): significant phosphatidylserine externalization; actual concentration in MDM2/p53 NMR sample (sample precipitation) [5]: lower than 0.2 mM; increase of PUMA mRNA level ([6]; 16–24 h): approximately 4 fold; activity of the senescence marker β-galactosidase (U87MG cells [9]): no activity
CC(C)C[C@H](NC(=O)C(=O)c1c(-c2ccccc2)[nH]c2ccccc12)C(=O)N[C@H](Cc1ccccc1)C(=O)O [compound 7, (2-phenylindol-3-yl)glyoxyl-L-leucine-L-phenylalanine] |  | 202 ± 21.2 nM | increase significantly | 5 µM | 60.1 ± 3.2% | 43 ± 3.1% | 759 ± 56 nM | IC50 (U87MG cells [1]; Homo sapiens, U-87 MG, 24 h; read-out: IC50, U87MG cell survival): 2900 ± 500 nM; p53 release from MDM2/p53 complex (W23 peak appears) [10]: complete p53 release

Source: paper PMC3996484, “Apoptosis Therapy in Cancer: The First Single-molecule Co-activating p53 and the Translocator Protein in Glioblastoma” (Scientific Reports, 2014)
